Experimental data from US10183015B2, “Heterocyclic compounds and methods of use” (Medivation Technologies LLC, priority 2015, dated 2019).
Values joined by “and” are separate entries in the source; they are usually repeats but may differ in a detail not shown here. Identical values can stand only once.

Columns and labels:
Assay type in all cases: in vivo
LDLR = assay: Short-term Paigen-diet NASH mouse model: hepatic LDLR gene expression (RT-qPCR); conditions: liver; for DDct: LDLR Dct relative to vehicle mean; for Dct: LDLR minus 18S; for 2DDct: LDLR relative expression to vehicle group, normalized to 18S; for LDLR: raw RT-qPCR value
Experimental: (§1) To investigate whether Compound #37 prevents the development of pathology associated with NASH and steatosis in an acute exploratory disease model, a study was conducted using a diet-induced acute liver steatosis model in mice. As described below, in this study, C57BL/6J mice were initiated on the Paigen diet and simultaneously treated with Compound #37 (5, 20, and 40 mg/kg/day) or vehicle control (20% HPβCD 10 mL/kg/day) by oral gavage for 21 days.
(§2) After acclimation, 8-week old male C57Bl/6J mice (Charles River) weighing about 25 g were randomized in 4 groups according their body weight and treated once daily around noon by oral gavage with vehicle, or Compound #37 at various for 21 days as follows: Group 1: vehicle-20% (2-hydroxypropyl)-β-cyclodextrin (HP-β-CD) (n=10); Group 2: Compound #37, 5 mg/kg (n=10) Group 3: Compound #37, 20 mg/kg (n=10) Group 4: Compound #37, 40 mg/kg (n=10). During the treatment period, body weight and food intake (measured over 24h) were measured 3 times per week and once a week, respectively. During the acclimation, all mice were fed a standard diet (Special Diets Services RM1 (E), product no. 801492) and tap water ad libitum. After the acclimation period, mice were fed until the end of the experiment with a 60% high fat Paigen diet (60 kcal % fat, 1.25% cholesterol, and 0.5% cholate; D11061901, Research Diet) and tap water ad libitum.
(§3) Gene expression analysis. Hepatic expression levels of genes involved in lipid metabolism (FAS, SREBP1, ACC1, SCD1), cholesterol metabolism (HMG-CoAR, LDLR), SREBP proteolysis (SCAP, INSIG1), ER stress (PERK), oxidative stress (NRF2), inflammation (MCP-1), and fibrosis (collagen 1α1) were quantified by RTqPCR. Expression level was normalized to 18S gene expression and relative expression to vehicle group was calculated with the […] method.

SREBP1C = assay: Short-term Paigen-diet NASH mouse model: hepatic SREBP1C gene expression (RT-qPCR); conditions: liver, 21 days; for DDct: SREBP1C Dct relative to vehicle mean; for Dct: SREBP1C minus 18S; for 2DDct: SREBP1C relative expression to vehicle group, normalized to 18S; for SREBP1C: raw RT-qPCR value
Experimental: as §1, §2, §3

[1] = test system: 60% high fat Paigen diet induced NASH mouse model; assay: Short-term Paigen-diet NASH mouse model: NAFLD (NAS) score histopathology; parameters: NAS score: total / NAS score: steatose / NAS score: inflammation / NAS score: fibrosis / NAS score: hepatocyte ballooning: scale not given here
Experimental: To investigate whether Compound #37 prevents the development of pathology associated with NASH and steatosis in an acute exploratory disease model, a study was conducted using a diet-induced acute liver steatosis model in mice. […]
as §2, with “or Compound #37 at various for 21 days as follows: Group 1: vehicle-20%” left out
NAFLD score analysis. A 0.5 cm^3 piece of liver was fixed in 10% formalin for 48-72h, stored in ethanol 70° at 4° C., and processed for eosin/hematoxylin staining and NAFLD score analysis. One section (thickness 3-5 μm) per block was deposited on Superfrost+slides for hematoxylin-eosin staining. Individual slides having a single hepatic lobe section stained with H&E were digitized using a Nanozoomer from Hamamatsu. Sections were evaluated with knowledge of groups. Each section was evaluated and individually scored. A NAFLD scoring system (NAS) adapted from Kleiner et al. (Hepatology 41, 1313-21, 2005), Wu et al. (BMC Vet. Res. 10, 162, 2014), and Lee et al. (J. Lipid Res. 48, 1885-96, 2007). A total of four variables were qualitatively assessed and ranked with a score: (1) hepatocellular steatosis, (2) liver inflammation, (3) lobular fibrosis, and (4) hepatocyte ballooning.

[2] = Compound #37 5 mg/kg, group mean, n=10
[3] = Compound #37 5 mg/kg, individual animals, 5 mg/kg
[4] = Compound #37 20 mg/kg, group mean, n=6
[5] = Compound #37 20 mg/kg, individual animals, 20 mg/kg
[6] = 5 mg/kg, 21 days, group mean, n 10
[7] = 20 mg/kg, 21 days, group mean, n 6
[8] = 40 mg/kg, 9 days, group mean, n 4

CC(C)Cc1cc(-c2nc(-c3ccc(NS(=O)(=O)C(F)(F)F)cc3Cl)cs2)ccn1 [Compound 37, N-(3-chloro-4-(2-(2-isobutylpyridin-4-yl)thiazol-4-yl)phenyl)-1,1,1-trifluoromethanesulfonamide]
DDct (LDLR; [2]): 0.18 | DDct (LDLR; [3]): −0.92 and 0.13 and −0.60 and −0.98 and 1.46 and 1.39 and 0.04 and 0.33 and 0.52 and 0.37 | DDct (LDLR; [4]): −0.09 | DDct (LDLR; [5]): 0.38 and 0.91 and 0.32 and −1.22 and 0.42 and −1.37 | Dct (LDLR; [2]): 12.8 | Dct (LDLR; [3]): 11.74 and 12.79 and 12.06 and 11.68 and 14.12 and 14.05 and 12.7 and 12.99 and 13.18 and 13.03 | Dct (LDLR; [4]): 12.6 | Dct (LDLR; [5]): 13.04 and 13.57 and 12.98 and 11.44 and 13.08 and 11.29 | 2DDct (LDLR; [2]): 1.03 | 2DDct (LDLR; [3]): 1.89 and 0.91 and 1.51 and 1.97 and 0.36 and 0.38 and 0.97 and 0.79 and 0.70 and 0.77 | 2DDct (LDLR; [4]): 1.29 | 2DDct (LDLR; [5]): 0.77 and 0.53 and 0.80 and 2.33 and 0.75 and 2.58 | LDLR (LDLR; [2]): 25.1 | LDLR (LDLR; [3]): 25.2 and 25.9 and 23.67 and 25.03 and 26.15 and 27.4 and 24.3 and 24.78 and 24.32 and 24.15 | LDLR (LDLR; [4]): 24.8 | LDLR (LDLR; [5]): 25.95 and 25.86 and 25.18 and 24.47 and 24.57 and 22.55 | DDct (SREBP1C; [2]): 0.26 | DDct (SREBP1C; [3]): −0.21 and 0.9 and 0.06 and −0.98 and 1.46 and 1.52 and −0.09 and −0.27 and 0.17 and 0.02 | DDct (SREBP1C; [4]): −0.13 | DDct (SREBP1C; [5]): 0.5 and 0.38 and 0.11 and −1.36 and 0.66 and −1.08 | Dct (SREBP1C; [2]): 14 | Dct (SREBP1C; [3]): 13.57 and 14.68 and 13.84 and 12.8 and 15.24 and 15.3 and 13.69 and 13.51 and 13.95 and 13.8 | Dct (SREBP1C; [4]): 13.6 | Dct (SREBP1C; [5]): 14.28 and 14.16 and 13.89 and 12.42 and 14.44 and 12.7 | 2DDct (SREBP1C; [2]): 0.95 | 2DDct (SREBP1C; [3]): 1.16 and 0.54 and 0.96 and 1.98 and 0.36 and 0.35 and 1.07 and 1.21 and 0.89 and 0.99 | 2DDct (SREBP1C; [4]): 1.29 | 2DDct (SREBP1C; [5]): 0.71 and 0.77 and 0.93 and 2.57 and 0.63 and 2.12 | SREBP1C (SREBP1C; [2]): 26.3 | SREBP1C (SREBP1C; [3]): 27.03 and 27.79 and 25.45 and 26.15 and 27.27 and 28.65 and 25.29 and 25.3 and 25.09 and 24.92 | SREBP1C (SREBP1C; [4]): 25.8 | SREBP1C (SREBP1C; [5]): 27.19 and 26.45 and 26.09 and 25.45 and 25.93 and 23.96 | animals with Grade 1 hepatocellular steatosis ([1]; 5 mg/kg, 21 days): 9/10 | animals with grade-3 inflammation ([1]; 5 mg/kg, 21 days): 4/10 | animals with limited periportal fibrosis (mostly Grade 1) ([1]; 5 mg/kg, 21 days): 10/10 | NAS score: fibrosis [1, 6]: 1.2 | NAS score: hepatocyte ballooning [1, 6]: 0.3 | NAS score: inflammation [1, 6]: 2 | NAS score: steatose [1, 6]: 1.1 | NAS score: total [1, 6]: 4.6 | NAS score: total ([1]; 5 mg/kg, 21 days, individual animals): 4 (2×) and 5 (4×) and 3 (2×) and 6 (2×) | animals with Grade 1 hepatocellular steatosis ([1]; 20 mg/kg, 21 days): 3/6 | animals with grade-3 inflammation ([1]; 20 mg/kg, 21 days): 1/6 | animals with limited periportal fibrosis (mostly Grade 1) ([1]; 20 mg/kg, 21 days): 3/6 | NAS score: fibrosis [1, 7]: 0.5 | NAS score: hepatocyte ballooning [1, 7]: 0 | NAS score: inflammation [1, 7]: 1.67 | NAS score: steatose [1, 7]: 0.5 | NAS score: total [1, 7]: 2.67 | NAS score: total ([1]; 20 mg/kg, 21 days, individual animals): 2 (2×) and 3 (2×) and 5 and 1 | NAS score: fibrosis [1, 8]: 0 | NAS score: hepatocyte ballooning [1, 8]: 1 | NAS score: inflammation [1, 8]: 0 | NAS score: steatose [1, 8]: 2 | NAS score: total [1, 8]: 3 | NAS score: total ([1]; 40 mg/kg, 9 days, individual animals): 3
